In patent US20260262643A1, “HERBICIDAL BENZOXAZINES” (FMC CORPORATION, priority 2022, published 2026):

Experiments:
rice = experiment: Test D flooded paddy test; format: in vivo, Oryza sativa; conditions: 250 g ai/ha, applied to paddy water, visual rating after 13 to 14 days, scale 0 to 100 (0 no effect, 100 complete control)
Procedure, shortened: (§1)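 Plants at the 2-leaf stage were grown in pots flooded to 3 cm, and compound was applied directly into the paddy water, with depth kept throughout. After 13–14 days in a greenhouse, injury was rated visually against untreated controls on a 0–100 scale (100 = complete control); a dash means not tested.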

ryegrass, Italian [1] = experiment: Test C postemergence; format: in vivo, Lolium multiflorum; conditions: 10 days, 0 to 100 scale (0 no effect, 100 complete control)
Procedure, shortened: (§2)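 Seeds in loam–sand blend received preemergence directed soil spray of test chemicals in non-phytotoxic solvent with surfactant; postemergence treatment was applied at one- to two-leaf stage (2–10 cm). After 10 days in greenhouse, injury rated visually versus untreated controls, 0 (no effect) to 100 (complete control).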

pigweed, palmer [2] = experiment: Test C preemergence; format: in vivo, Amaranthus palmeri
Procedure, shortened: as §2

soybean [3] = experiment: Test C preemergence; format: in vivo, Glycine max
Procedure, shortened: as §2

galium = experiment: Test C postemergence; format: in vivo, Galium aparine; conditions: 10 days, 0 to 100 scale (0 no effect, 100 complete control)
Procedure, shortened: as §2

barnyardgrass [4] = experiment: Test D flooded paddy test; format: in vivo, Echinochloa crus-galli; conditions: 250 g ai/ha, applied to paddy water, visual rating after 13 to 14 days, scale 0 to 100 (0 no effect, 100 complete control)
Procedure, shortened: as §1

wheat [5] = experiment: Test C postemergence; format: in vivo, Triticum aestivum; conditions: 10 days, 0 to 100 scale (0 no effect, 100 complete control)
Procedure, shortened: as §2

blackgrass [6] = experiment: Test C preemergence; format: in vivo, Alopecurus myosuroides
Procedure, shortened: as §2

oat, wild [7] = experiment: Test C preemergence; format: in vivo, Avena fatua
Procedure, shortened: as §2

foxtail, giant [8] = experiment: Test C preemergence; format: in vivo, Setaria faberi
Description: (§3) Seeds of plant species selected from barnyardgrass (Echinochloa crusgalli), blackgrass (Alopecurus myosuroides), corn (Zea mays), foxtail, giant (giant foxtail, Setaria faberi), green foxtail (Setaria viridis), goosegrass (Eleusine indica), kochia (Bassia scoparia), oat, wild (wild oat, Avena fatua), pigweed, palmer (palmer amaranth, palmer pigweed, Amaranthus palmeri), Pigweed, Redroot (redroot pigweed, Amaranthus retroflexus), ragweed (common ragweed, Ambrosia artemisiifolia), ryegrass, Italian ([…] ryegrass, Lolium multiflorum), soybean (Glycine max), and wheat (Triticum aestivum) were planted into a blend of loam soil and sand and treated preemergence with a directed soil spray using test chemicals formulated in a non-phytotoxic solvent mixture which included a surfactant. At the same time, plants selected from these crops and weed species and also galium (catchweed bedstraw, Galium aparine) and horseweed (Erigeron canadensis) were planted in pots containing the same blend of loam soil and sand and treated with postemergence applications of test chemicals formulated in the same manner. Plants ranged in height from 2 to 10 cm and were in the one- to two-leaf stage for the postemergence treatment. Treated plants and untreated controls were maintained in a greenhouse for 10 days, after which time all treated plants were compared to untreated controls and visually evaluated for injury. Plant response ratings, summarized in Table C, are based on a 0 to 100 scale where 0 is no effect and 100 is complete control. A dash (-) response means no test result.

ragweed [9] = experiment: Test C postemergence; format: in vivo, Ambrosia artemisiifolia; conditions: 10 days, 0 to 100 scale (0 no effect, 100 complete control)
Procedure, shortened: as §2

kochia [10] = experiment: Test C postemergence; format: in vivo, Bassia scoparia; conditions: 10 days, 0 to 100 scale (0 no effect, 100 complete control)
Procedure, shortened: as §2

wheat [11] = experiment: Test C preemergence; format: in vivo, Triticum aestivum
Procedure, shortened: as §2

ducksalad = experiment: Test D flooded paddy test; format: in vivo, Heteranthera limosa; conditions: 250 g ai/ha, applied to paddy water, visual rating after 13 to 14 days, scale 0 to 100 (0 no effect, 100 complete control)
Procedure, shortened: as §1

kochia [12] = experiment: Test C preemergence; format: in vivo, Bassia scoparia
Procedure, shortened: as §2

ryegrass, Italian [13] = experiment: Test C preemergence; format: in vivo, Lolium multiflorum
Procedure, shortened: as §2

barnyardgrass [14] = experiment: Test C preemergence; format: in vivo, Echinochloa crusgalli
Procedure, shortened: as §2

soybean [15] = experiment: Test C postemergence; format: in vivo, Glycine max; conditions: 10 days, 0 to 100 scale (0 no effect, 100 complete control)
Procedure, shortened: as §2

foxtail, giant [16] = experiment: Test C postemergence; format: in vivo, Setaria faberi; conditions: 10 days, 0 to 100 scale (0 no effect, 100 complete control)
Description: as §3

oat, wild [17] = experiment: Test C postemergence; format: in vivo, Avena fatua; conditions: 10 days, 0 to 100 scale (0 no effect, 100 complete control)
Procedure, shortened: as §2

blackgrass [18] = experiment: Test C postemergence; format: in vivo, Alopecurus myosuroides; conditions: 10 days, 0 to 100 scale (0 no effect, 100 complete control)
Procedure, shortened: as §2

corn [19] = experiment: Test C preemergence; format: in vivo, Zea mays; conditions: Preemergence, 125 g ai/ha; 0 to 100 scale, 0 no effect, 100 complete control
Procedure, shortened: as §2

pigweed, palmer [20] = experiment: Test C postemergence; format: in vivo, Amaranthus palmeri; conditions: 10 days, 0 to 100 scale (0 no effect, 100 complete control)
Procedure, shortened: as §2

sedge, umbrella = experiment: Test D flooded paddy test; format: in vivo, Cyperus difformis; conditions: 250 g ai/ha, applied to paddy water, visual rating after 13 to 14 days, scale 0 to 100 (0 no effect, 100 complete control)
Procedure, shortened: as §1

barnyardgrass [21] = experiment: Test C postemergence; format: in vivo, Echinochloa crusgalli; conditions: 10 days, 0 to 100 scale (0 no effect, 100 complete control)
Procedure, shortened: as §2

ragweed [22] = experiment: Test C preemergence; format: in vivo, Ambrosia artemisiifolia
Procedure, shortened: as §2

corn [23] = experiment: Test C postemergence; format: in vivo, Zea mays; conditions: 10 days, 0 to 100 scale (0 no effect, 100 complete control)
Procedure, shortened: as §2

horseweed = experiment: Test C postemergence; format: in vivo, Erigeron canadensis; conditions: 10 days, 0 to 100 scale (0 no effect, 100 complete control)
Procedure, shortened: as §2

[24] = 500 g ai/ha, preemergence, 0 to 100 scale (0 no effect, 100 complete control)
[25] = Preemergence, 125 g ai/ha, 0 to 100 scale, 0 no effect, 100 complete control

COc1ccc(-n2cnc(C3CC3)n2)cc1C(=O)N1C[C@H](C)Oc2c(Cl)cccc21 [Compound 324]
90: Soybean plant response rating (soybean [3]; [24]) | Blackgrass plant response rating (blackgrass [6]; [24]) | Oat, Wild plant response rating (oat, wild [7]; [24]) | Plant response rating, Foxtail, Giant (foxtail, giant [8]; [25]) | Plant response rating, Kochia (kochia [10]; Postemergence, 125 g ai/ha) | Wheat plant response rating (wheat [11]; [24]) | Kochia plant response rating (kochia [12]; [24]) | Plant response rating, Kochia (kochia [12]; [25]) | Plant response rating, Barnyardgrass (barnyardgrass [14]; [25]) | Plant response rating, Foxtail, Giant (foxtail, giant [16]; 500 g ai/ha, postemergence) | Plant response rating, Blackgrass (blackgrass [18]; 500 g ai/ha, postemergence) | Plant response rating, Blackgrass (blackgrass [18]; Postemergence, 125 g ai/ha) | Plant response rating, Pigweed, Palmer (pigweed, palmer [20]; Postemergence, 125 g ai/ha) | Ragweed plant response rating (ragweed [22]; [24]) | Plant response rating, Corn (corn [23]; 500 g ai/ha, postemergence)
50: Plant response rating, Ryegrass, Italian (ryegrass, Italian [1]; 500 g ai/ha, postemergence) | Plant response rating, Barnyardgrass (barnyardgrass [21]; Postemergence, 125 g ai/ha) | Plant response rating, Ragweed (ragweed [22]; [25])
0: Plant response rating, Oat, Wild (oat, wild [7]; [25]) | Plant response rating, Corn (corn [19])
80: Plant response rating, Ducksalad (Flood) (ducksalad) | Plant response rating, Ryegrass, Italian (ryegrass, Italian [13]; [25]) | Plant response rating, Foxtail, Giant (foxtail, giant [16]; Postemergence, 125 g ai/ha) | Plant response rating, Barnyardgrass (barnyardgrass [21]; 500 g ai/ha, postemergence) | Plant response rating, Horseweed (horseweed; 500 g ai/ha, postemergence)
98: Plant response rating, Sedge, Umbrella (Flood) (sedge, umbrella)
70: Plant response rating, Blackgrass (blackgrass [6]; [25]) | Plant response rating, Ragweed (ragweed [9]; 500 g ai/ha, postemergence) | Plant response rating, Oat, Wild (oat, wild [17]; 500 g ai/ha, postemergence) | Plant response rating, Corn (corn [23]; Postemergence, 125 g ai/ha)
40: Plant response rating, Ryegrass, Italian (ryegrass, Italian [1]; Postemergence, 125 g ai/ha) | Plant response rating, Barnyardgrass (Flood) (barnyardgrass [4])
60: Plant response rating, Ragweed (ragweed [9]; Postemergence, 125 g ai/ha) | Plant response rating, Horseweed (horseweed; Postemergence, 125 g ai/ha)
10: Plant response rating, Rice (Flood) (rice) | Plant response rating, Wheat (wheat [11]; [25]) | Plant response rating, Oat, Wild (oat, wild [17]; Postemergence, 125 g ai/ha)
30: Plant response rating, Wheat (wheat [5]; 500 g ai/ha, postemergence) | Plant response rating, Wheat (wheat [5]; Postemergence, 125 g ai/ha)
100: Pigweed, Palmer plant response rating (pigweed, palmer [2]; [24]) | Plant response rating, Pigweed, Palmer (pigweed, palmer [2]; [25]) | Plant response rating, Soybean (soybean [3]; [25]) | Plant response rating, Galium (galium; 500 g ai/ha, postemergence) | Plant response rating, Galium (galium; Postemergence, 125 g ai/ha) | Foxtail, Giant plant response rating (foxtail, giant [8]; [24]) | Plant response rating, Kochia (kochia [10]; 500 g ai/ha, postemergence) | Ryegrass, Italian plant response rating (ryegrass, Italian [13]; [24]) | Barnyardgrass plant response rating (barnyardgrass [14]; [24]) | Plant response rating, Soybean (soybean [15]; 500 g ai/ha, postemergence) | Plant response rating, Soybean (soybean [15]; Postemergence, 125 g ai/ha) | Plant response rating, Pigweed, Palmer (pigweed, palmer [20]; 500 g ai/ha, postemergence)
